# Test system: tet operator-bearing hCMV major immediate-early enhancer-promoter
# Assay: hEGF expression in porcine partial thickness wounds after particle-mediated gene transfer
# Format: in vivo, pig
# Details: 500 mg tetracycline intravenous; day 2 to day 3 post-gene transfer
# Method: FIG. 5. In vivo regulation of the hCMV major immediate-early enhancer-promoter by the tet repressor. A total of 18 partial thickness wounds ([…]) were created on porcine dorsal skin. Nine wounds received 0.2 μg of pCMVtetOEGF and 0.8 μg of pcDNA3 vector DNA and the others received 0.2 μg of pCMVtetOEGF and 0.8 μg of pcDNA3-tetR by particle-mediated gene transfer. After particle bombardment, each transfected wound was enclosed in a sealed vinyl adhesive chamber containing 1.2 ml of isotonic saline in the presence of 100 units/ml penicillin and 100 μg/ml streptomycin. Wound fluid was collected from the chambers at 22, 46 and 70 hours after gene transfer and stored at −70° C. Following collection of wound fluid at each indicated time point, a new chamber was applied. Each pig was given 500 mg of tetracycline by intravenous injection at 46 hours after gene transfer. hEGF expression in wound fluid was determined by ELISA. The vertical line associated with each bar represents standard error. […]
# Preparation of cartridges with coated DNA-gold beads for Accell (Agracetus/Geniva, Inc.) particle-mediated gene transfer and the utilization of the Accell helium gene gun were according to the protocol provided by Geniva, Inc. (8520 University Green, Middleton, Wis. 53562). […] Levels of EGF in wound fluid was determined by ELISA with anti-HEGF specific antibody. […]
smiles,measurement,value
CN(C)[C@@H]1C(O)=C(C(N)=O)C(=O)[C@@]2(O)C(O)=C3C(=O)c4c(O)cccc4[C@@](C)(O)[C@H]3C[C@@H]12 [tetracycline],increase of human EGF expression in wounds receiving pCMVtetOEGF and pcDNA3-tetR,4 fold

# — patent US6444871B1, “Tetracycline repressor regulated mammalian cell transcription and viral replication switch” (Brigham and Women's Hospital, priority 1997, dated 2002)
